Reference: PubChem BioAssay AID2060504 (Molecular Pharmacology Branch, DTP, NCI, 2025)

Test system: 636577-100-R-J1-PDC complex spheroid viability
Assay: Anticancer human tumor 636577-100-R-J1-PDC patient-derived endometrial adenocarcinoma cell line growth inhibition [GQUAD]
Details: for IC50: curve of first compound; for viability, T/C: stronger effect = lower value
How it was run: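 Viability of tumor cells grown as complex spheroids with endothelial and stromal cells, exposed to drug combinations. Top concentration at or near clinical Cmax (else 10 microM), diluted in half-log increments.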

[1] = second compound 0.0316 µM, first compound 0.0316 µM
[2] = second compound 0.0316 µM, first compound 0.1 µM
[3] = second compound 0.0316 µM, first compound 0.316 µM
[4] = second compound 0.0316 µM, first compound 1 µM
[5] = second compound 0.0316 µM, first compound 3.16 µM
[6] = second compound 0.0316 µM, first compound 10 µM
[7] = second compound 0.1 µM, first compound 0.0316 µM
[8] = second compound 0.1 µM, first compound 0.1 µM
[9] = second compound 0.1 µM, first compound 0.316 µM
[10] = second compound 0.1 µM, first compound 1 µM
[11] = second compound 0.1 µM, first compound 3.16 µM
[12] = second compound 0.1 µM, first compound 10 µM
[13] = second compound 0.316 µM, first compound 0.0316 µM
[14] = second compound 0.316 µM, first compound 0.1 µM
[15] = second compound 0.316 µM, first compound 0.316 µM
[16] = second compound 0.316 µM, first compound 1 µM
[17] = second compound 0.316 µM, first compound 3.16 µM
[18] = second compound 0.316 µM, first compound 10 µM
[19] = second compound 1 µM, first compound 0.0316 µM
[20] = second compound 1 µM, first compound 0.1 µM
[21] = second compound 1 µM, first compound 0.316 µM
[22] = second compound 1 µM, first compound 1 µM
[23] = second compound 1 µM, first compound 3.16 µM
[24] = second compound 1 µM, first compound 10 µM
[25] = second compound 3.16 µM, first compound 0.0316 µM
[26] = second compound 3.16 µM, first compound 0.1 µM
[27] = second compound 3.16 µM, first compound 0.316 µM
[28] = second compound 3.16 µM, first compound 1 µM
[29] = second compound 3.16 µM, first compound 3.16 µM
[30] = second compound 3.16 µM, first compound 10 µM
[31] = second compound 10 µM, first compound 0.0316 µM
[32] = second compound 10 µM, first compound 0.1 µM
[33] = second compound 10 µM, first compound 0.316 µM
[34] = second compound 10 µM, first compound 1 µM
[35] = second compound 10 µM, first compound 3.16 µM
[36] = second compound 10 µM, first compound 10 µM
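Also: viability read after seven days of drug exposure.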
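For viability, T/C in this document: luminescence signal used as a proxy for viable cells; 100% = DMSO vehicle control wells.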

For `CC(C)n1c(=O)n(C)c2cnc3cc(F)c(-c4ccc(OCCCN5CCCCC5)nc4)cc3c21` + CN(C)c1ccc(Nc2c3ccc(NC(=O)CCN4CCCC4)cc3nc3cc(NC(=O)CCN4CCCC4)ccc23)cc1, the IC50 (second compound 0.0316 µM) was > 10000 nM, the IC50 (second compound 0.1 µM) was > 10000 nM and the IC50 (second compound 0.316 µM) was 8490 nM. The IC50 (second compound 1 µM) was 4900 nM, the IC50 (second compound 3.16 µM) was < 31.6 nM and the IC50 (second compound 10 µM) was < 31.6 nM. For the same compound, the viability, T/C [1] was 121%, the viability, T/C [2] was 101% and the viability, T/C [3] was 127%. The viability, T/C [4] was 49.5%, the viability, T/C [5] was 93.8% and the viability, T/C [6] was 53.5%. The viability, T/C [7] was 128%, the viability, T/C [8] was 102% and the viability, T/C [9] was 109%. It also gave a viability, T/C [10] of 74.9%, a viability, T/C [11] of 82.1% and a viability, T/C [12] of 52.4%. It also gave a viability, T/C [13] of 67.6%, a viability, T/C [14] of 81.7% and a viability, T/C [15] of 103%. For the same compound, the viability, T/C [16] was 63.6%, the viability, T/C [17] was 71.7% and the viability, T/C [18] was 46.6%. It also gave a viability, T/C [19] of 60%, a viability, T/C [20] of 67.8% and a viability, T/C [21] of 75.9%. It also gave a viability, T/C [22] of 57%, a viability, T/C [23] of 61.6% and a viability, T/C [24] of 33.5%. The viability, T/C [25] was 39%, the viability, T/C [26] was 36.2% and the viability, T/C [27] was 30.2%. The viability, T/C [28] was 27%, the viability, T/C [29] was 20.6% and the viability, T/C [30] was 14.5%. It also gave a viability, T/C [31] of 7%, a viability, T/C [32] of 5.49% and a viability, T/C [33] of 4.48%. For the same compound, the viability, T/C [34] was 2.77%, the viability, T/C [35] was 2.25% and the viability, T/C [36] was 0.79%.
For `O=C(c1cc(Cc2n[nH]c(=O)c3ccccc23)ccc1F)N1CCN(C(=O)C2CC2)CC1` + CN(C)c1ccc(Nc2c3ccc(NC(=O)CCN4CCCC4)cc3nc3cc(NC(=O)CCN4CCCC4)ccc23)cc1, the IC50 (second compound 0.0316 µM) was 1580 nM, the IC50 (second compound 0.1 µM) was 1450 nM and the IC50 (second compound 0.316 µM) was 3730 nM. The IC50 (second compound 1 µM) was 1360 nM, the IC50 (second compound 3.16 µM) was < 31.6 nM and the IC50 (second compound 10 µM) was < 31.6 nM. It also gave a viability, T/C [1] of 93.1%, a viability, T/C [2] of 54.9% and a viability, T/C [3] of 71%. The viability, T/C [4] was 63.8%, the viability, T/C [5] was 37.7% and the viability, T/C [6] was 33.2%. For the same compound, the viability, T/C [7] was 69.7%, the viability, T/C [8] was 54.2% and the viability, T/C [9] was 52.1%. For the same compound, the viability, T/C [10] was 57.7%, the viability, T/C [11] was 46.2% and the viability, T/C [12] was 31.7%. The viability, T/C [13] was 50.3%, the viability, T/C [14] was 53.6% and the viability, T/C [15] was 64.3%. For the same compound, the viability, T/C [16] was 61.5%, the viability, T/C [17] was 50.1% and the viability, T/C [18] was 34.1%. For the same compound, the viability, T/C [19] was 63.7%, the viability, T/C [20] was 62.4% and the viability, T/C [21] was 60.5%. The viability, T/C [22] was 54.3%, the viability, T/C [23] was 38.9% and the viability, T/C [24] was 28.8%. For the same compound, the viability, T/C [25] was 29.2%, the viability, T/C [26] was 40.2% and the viability, T/C [27] was 34.2%. The viability, T/C [28] was 30.8%, the viability, T/C [29] was 25.6% and the viability, T/C [30] was 21.1%. For the same compound, the viability, T/C [31] was 5.92%, the viability, T/C [32] was 4.61% and the viability, T/C [33] was 4.06%. The viability, T/C [34] was 5.25%, the viability, T/C [35] was 6.06% and the viability, T/C [36] was 4.36%.
`Cc1cccc(N(C)C(=O)C2C(O)CCN2c2nc(C)cc(C(F)(F)F)c2C#N)c1` (stereo not drawn) + Cc1cnc(CNC(=O)c2c(=O)c3ccc(N4CCCN(C)CC4)nc3n3c2sc2ccccc23)cn1 was tested, and the IC50 (second compound 0.0316 µM) was < 31.6 nM, the IC50 (second compound 0.1 µM) was < 31.6 nM and the IC50 (second compound 0.316 µM) was < 31.6 nM. The IC50 (second compound 1 µM) was < 31.6 nM, the IC50 (second compound 3.16 µM) was < 31.6 nM and the IC50 (second compound 10 µM) was < 31.6 nM. The viability, T/C [1] was 52.7%, the viability, T/C [2] was 43.5% and the viability, T/C [3] was 35%. The viability, T/C [4] was 39.7%, the viability, T/C [5] was 40.5% and the viability, T/C [6] was 43.9%. For the same compound, the viability, T/C [7] was 29.2%, the viability, T/C [8] was 22.6% and the viability, T/C [9] was 25.3%. It also gave a viability, T/C [10] of 23.2%, a viability, T/C [11] of 25.7% and a viability, T/C [12] of 24.6%. For the same compound, the viability, T/C [13] was 21.8%, the viability, T/C [14] was 18.1% and the viability, T/C [15] was 21.6%. The viability, T/C [16] was 21.6%, the viability, T/C [17] was 24.2% and the viability, T/C [18] was 22.7%. The viability, T/C [19] was 19.1%, the viability, T/C [20] was 19.7% and the viability, T/C [21] was 19.7%. It also gave a viability, T/C [22] of 19.2%, a viability, T/C [23] of 20.8% and a viability, T/C [24] of 25.2%. The viability, T/C [25] was 12.5%, the viability, T/C [26] was 19.6% and the viability, T/C [27] was 19.4%. For the same compound, the viability, T/C [28] was 21%, the viability, T/C [29] was 22.4% and the viability, T/C [30] was 20.7%. For the same compound, the viability, T/C [31] was 22.3%, the viability, T/C [32] was 17.8% and the viability, T/C [33] was 21%. For the same compound, the viability, T/C [34] was 17.9%, the viability, T/C [35] was 22.9% and the viability, T/C [36] was 20.8%.
With `COc1ncnc(C2CC2)c1-c1ncc2cnn(Cc3ccc(-c4nc(C(F)(F)F)cn4C(C)C)cc3)c2n1` + CN(C)c1ccc(Nc2c3ccc(NC(=O)CCN4CCCC4)cc3nc3cc(NC(=O)CCN4CCCC4)ccc23)cc1 the IC50 (second compound 0.0316 µM) was > 10000 nM, the IC50 (second compound 0.1 µM) was > 10000 nM and the IC50 (second compound 0.316 µM) was > 10000 nM. For the same compound, the IC50 (second compound 1 µM) was 91.6 nM, the IC50 (second compound 3.16 µM) was < 31.6 nM and the IC50 (second compound 10 µM) was < 31.6 nM. For the same compound, the viability, T/C [1] was 79.6%, the viability, T/C [2] was 62.9% and the viability, T/C [3] was 69.6%. The viability, T/C [4] was 64%, the viability, T/C [5] was 56.9% and the viability, T/C [6] was 57.4%. The viability, T/C [7] was 69.4%, the viability, T/C [8] was 47.5% and the viability, T/C [9] was 66%. For the same compound, the viability, T/C [10] was 39.1%, the viability, T/C [11] was 63% and the viability, T/C [12] was 68.8%. For the same compound, the viability, T/C [13] was 71.5%, the viability, T/C [14] was 61.9% and the viability, T/C [15] was 58.1%. It also gave a viability, T/C [16] of 54.4%, a viability, T/C [17] of 64.2% and a viability, T/C [18] of 48.9%. For the same compound, the viability, T/C [19] was 57.2%, the viability, T/C [20] was 52.5% and the viability, T/C [21] was 49.2%. For the same compound, the viability, T/C [22] was 25.7%, the viability, T/C [23] was 54.3% and the viability, T/C [24] was 48.9%. The viability, T/C [25] was 32.4%, the viability, T/C [26] was 31.1% and the viability, T/C [27] was 36.2%. For the same compound, the viability, T/C [28] was 30.8%, the viability, T/C [29] was 26% and the viability, T/C [30] was 17.8%. It also gave a viability, T/C [31] of 4.33%, a viability, T/C [32] of 4.66% and a viability, T/C [33] of 3.91%. The viability, T/C [34] was 3.97%, the viability, T/C [35] was 2.12% and the viability, T/C [36] was 0.46%.
